This is an account of results in patent US10092595B2, “Compositions and methods for treating inflammatory arthritis” (priority 2009, dated 2018).

“Also recorded” adds a separate entry of the source. Square brackets hold non-standard residues; d marks the D form. Peptide text beside a SMILES is read from it. * marks the point of attachment. Nva = CCC[C@H](N)C(=O)O; Cbz = O=C(OCc1ccccc1)*; CH2F = FC*

Data set [1] concerns gp130. The data set can be described thus: Western blot of gp130 expression in MH7A cells. The following applies: for effect of pre-incubation with inhibitor on As2O3-induced decrease in gp130: NH4Cl 2.5 mM, MG115 10 μM, Z-VAD-FMK 25 μM, As2O3 5 μM. The data set is classed as cell-based. Here is the method: (§1) Western blot analysis was performed (Pang et al., Gastroenterology, 132:1088-103 (2007)). Cell lysis and protein collection was conducted according to standard protocols. Protein samples (typically 30 μg) were separated by sodium dodecyl sulfate-polyacrylamide gel electrophoresis (SDS-PAGE) in 12% resolving gel and electro-transferred to nitrocellulose membranes (400 mA for 2 hours). After blocking with tris-buffered saline-TWEEN (TBS-T) containing 5% non-fat milk at room temperature for 30 minutes, membranes were incubated with the primary antibody and TBS-T with 5% bovine serum albumin at 4° C. overnight. The membranes were then washed thrice with TBS-T, and incubated for 1 hour at room temperature with 1:2000 horseradish peroxidase-conjugated secondary antibodies (Amersham-Pharmacia Biotechnology, Piscataway, N.J., USA). Immunoreactive bands were detected with chemiluminescence using the SuperSignal West Pico Chemiluminescent Substrate (Pierce Chemical Co., Rockford, Ill., USA), and visualized on X-ray films. Densitometric quantification of band signals was performed using ImageJ 1.36b software (National Institutes of Health, USA). All experiments were performed in triplicates.
On the technique in general: Immunoblotting shows a protein as a band on a membrane.

The subject of data set [2] is MH7A cells.
Protocol: Cells were maintained in RPMI1640 (Invitrogen, Carlsbad, Calif., USA) supplemented with 10% heat inactivated fetal bovine serum (FBS; Invitrogen) in 5% CO2 at 37° C.
Cellular proliferation was assessed by an MTT assay (GE Healthcare, Piscataway, N.J., USA) (Cheung et al., Cancer Lett., 246:122-8 (2007)). Cells (2×10^4 cells/well in 96-well plates) were incubated overnight before treatment with controls or reagents for 2-6 days. The treated cells were then incubated with the MTT labeling solution (10 μL/well). After 4 hours of incubation, cells were lyzed, and formazan crystals solubilized overnight at 37° C. Formazean signal was detected at 570 nm (μ-Quant™ microplate spectrometer, Bio-Tek Instruments Inc., VT, USA). Data obtained were analyzed by the KC junior software (BLD Science, Garner, N.C., USA).
The conditions of data set [3]: RA patients; cited from earlier work.
Data set [4] has as its system JNK. Description: Western blot of JNK phosphorylation in MH7A cells. The data set is classed as cell-based. Here is the method: as §1
The conditions of data set [5]: oral As2O3; cited from earlier work.
In data set [6] the test system is gp130. The data set can be described thus: Immunoprecipitation of gp130 and Western blot with anti-ubiquitin antibodies FK1 and FK2. Format: cell-based. The following applies: 100 μM As2O3, 0, 4 or 6 hours; FK2 positive, FK1 negative. Here is the method: Immunoblot analysis was performed with gp130 ubiquitinylation. MH7A cells are incubated with 100 μM As2O3 for 0, 4 or 6 hours. Antibody to gp130 is used for immunoprecipitation (IP) of total cell lysates, followed by Western blot analysis with anti-ubiquitin antibodies FK1 and FK2. IP with non-immune rabbit serum (NIS) serves as control.
Immunoprecipitation was performed by standard procedures (Pang et al., Gastroenterology, 132:1088-103 (2007)). Cells were washed with ice-cold PBS supplemented with 1 mM sodium orthovanadate and Complete protease inhibitor cocktail (Complete; Roche Molecular Biochemicals), and lysed with buffer (50 mM Tris-HCl, pH: 7.5, 100 mM NaCl, 1% Triton X-100, 4 μg/mL aprotinin, 100 μM phenylmethylsulfonyl fluoride, 200 μM sodium orthovanadate, 2 μg/mL leupeptin, 1 mM ditheiothreitol, and 1× Complete) at 4° C. for 15 minutes. Lysates were collected and centrifuged. Proteins were assayed (Bio-Rad Protein Assay Kit, Philadelphia, Pa., USA), and adjusted to 1 μg/μL (typically 800 to 1000 μg). Immunoprecipitation was preformed by incubating protein samples with the appropriate antibodies (typically 4 μg) or control non-immune sera at 4° C. overnight with gentle shaking. […] The immunoprecipitates were then analyzed by Western blotting in triplicates

In data set [7] the test system is IL-6 receptor α. The data set can be described thus: Western blot of IL-6 receptor α expression in MH7A cells. The data set is classed as cell-based. Here is the method:
as §1

The conditions of data set [8]: oral As2O3; cited from earlier work. The source holds these as a separate data set.
Data set [9] deals with GP130 gene. Description: RT-PCR and Q-PCR of gp130 gene transcription in MH7A cells. The data set is classed as cell-based. Here is the method:
(§2) Total RNA was prepared using TRIzol (Invitrogen). Reverse transcription PCR (RT-PCR) was performed (Cheung, et al., Cancer Lett., 246:122-8 (2007)). RNA was reverse transcribed with the Superscript™ III First-Strand Synthesis System (Invitrogen) according to the manufacturer's instructions. Reaction mixes contained 1.2 μL of cDNA, 18 μL of Platinum® PCR Supermix (Invitrogen) and 200 nM of each pair of primers.
Quantitative-RT-PCR (Q-PCR) for GP130 was performed with the Assays-on-Demand™ Gene Expression System (AssayID: Hs00174360_m1, PE Biosystems, Foster City, Calif., USA) according to the manufacturer's instructions. The reaction mix contained 2 μL of cDNA, 10 μL of TaqMan® Universal PCR Master Mix, 1 μL of Assay-on-Demand™ Gene Expression Assay Mix, and RNase-free water to a volume of 20 μL. Q-PCR was performed with the ABI Prism 7700 Sequence Detector (PE Biosystems). […] Real-time PCR amplification data were collected continuously and analyzed with the ABI Prism 7700 Sequence Detector. Relative gene expression to the control calibrator, and normalized to the internal control, was calculated by the ΔΔCT method (ABI user bulletin number 2, PE Biosystem) (Cheung, et al., Cancer Lett., 246:122-8 (2007)). […]

In data set [10] the test system is p53. The data set can be described thus: Western blot of p53 phosphorylation at serine 46 in MH7A cells. Format: cell-based. Conditions: 5 μM As2O3.
The test system of data set [11] is caspase 3. The data set can be described thus: Western blot of caspase 3 activation in MH7A cells. The data set is classed as cell-based. Here is the method:
as §1

Data set [12] has as its system MH7A cells. Description: Cell cycle analysis by PI staining and flow cytometry. Format: cell-based. The following applies: 5 μM As2O3, 24 hours. Here is the method:
Cell cycle analysis was performed as described (Pang et al., J. Pathol. 210:19-25, (2006)), Cells were trypsinized, washed twice with ice-cold PBS, re-suspended in 500 μL PBS, and stained with PI for 10 minutes on ice (DNA Prep™, Beckman Coulter). Cell cycle was determined by flow cytometry, and data analyzed by the WinMDI 2.8 software.
(In flow cytometry, cells or beads pass a laser one at a time.)

The test system of data set [13] is NFκB. The data set can be described thus: Western blot of NFκB expression in MH7A cells. Format: cell-based. The following applies: dose (24 hours) and time (5 μM) dependence. Here is the method:
as §1

Data set [14] concerns IL-6 gene. Description: RT-PCR of IL-6 gene transcription in MH7A cells. The data set is classed as cell-based. Here is the method:
as §2

In data set [15] the test system is IL-6 receptor α gene. The data set can be described thus: RT-PCR of IL-6 receptor α gene transcription in MH7A cells. The data set is classed as cell-based. Conditions: semi-quantitative RT-PCR. Here is the method: as §2
The test system of data set [16] is MH7A cells. The data set can be described thus: Annexin V apoptosis assay (flow cytometry). The data set is classed as cell-based. Conditions: As2O3 5 μM, representative assay. Here is the method:
For apoptosis assay, 1×10^6 cells were incubated in 10-cm plates overnight, before treatment with controls or reagents for 24 hours. Cells were then trypsinized, washed twice with ice-cold phosphate buffered saline (PBS), re-suspended in 500 μL of binding buffer, and incubated on ice for 10 minutes with FITC-conjugated annexin-V and propidium iodide (PI) (Immunotech; Fullerton, Calif., USA). Apoptotic cells (annexin-V-positive, PI-negative) were enumerated by flow cytometry in triplicates (Epics, Beckman Coulter, Fullerton, Calif., USA) after appropriate color compensation. Data analysis was performed by the WinMDI 2.8 software (The Scripps Research Institute, La Jolla, Calif., USA).

Regarding `COC(=O)C[C@H](NC(=O)[C@H](C)NC(=O)[C@@H](NC(=O)OCc1ccccc1)C(C)C)C(=O)CF` [Z-VAD-FMK] (Cbz-Val-Ala-Asp(OMe)-CH2F), the “effect of pre-incubation with inhibitor on As2O3-induced decrease in gp130” value in [1] was “had no effect”.
As to “IL-6: recombinant human IL-6 (Peprotech)”, in data set [2] (72 hours), the “effect of exogenous IL-6 on proliferation of MH7A cells” value was “did not increase the proliferation”.
Turning to `CCC[C@@H](C=O)NC(=O)[C@H](CC(C)C)NC(=O)[C@H](CC(C)C)NC(=O)OCc1ccccc1` [MG115] (Cbz-Leu-Leu-[Nva]-aldehyde), the “effect of pre-incubation with inhibitor on As2O3-induced decrease in gp130” value in [1] was “had no effect”.
As for tocilizumab, the “clinical effect in RA” value in [3] was “significant control of symptoms”.
In the case of infliximab, the “clinical effect in RA” value in [3] is “significant improvement in joint inflammation and halts the progression of joint damage”.
Turning to `Cl.N` [NH4Cl, ammonium chloride], the “effect of pre-incubation with inhibitor on As2O3-induced decrease in gp130” value in [1] is “significantly prevented”. The “effect of inhibitor on As2O3-induced JNK phosphorylation/activation” value in data set [4] (SP600125 30 μM, NH4Cl 2.5 mM) is recorded as “almost totally abrogated”.
On to Arsenic trioxide [As2O3], for which, in data set [1] (Western blot), the gp130 protein level result is “dose and time dependent decrease of gp130”. Further, the “efficacy in relapsed acute promyelocytic leukemia” value in data set [5] is recorded as “highly efficacious”. The gp130 ubiquitination entry in data set [6] is on record as “induced mono-ubiquitination of gp130; also recorded: gp130 is mono-ubiquitinated”. Also, the “IL-6 receptor α protein level” value in data set [7] is on record as “remaining unchanged”. Besides, in [8], the QT prolongation entry is recorded as “minimal QT prolongation”. Further, the GP130 gene transcription entry in data set [9] (real-time quantitative PCR, 5 μM As2O3, 0-24 hours) was “no effect on GP130 gene transcription”. In addition, the gp130 gene transcription entry in [9] (semi-quantitative RT-PCR) was “no effect on the transcription of both genes”. Besides, the “p53 phosphorylation at serine 46” value in data set [10] was “significantly increased p53 phosphorylation at serine 46”. In addition, in data set [11], the “activation of caspase 3” value was “dose and time dependent activation of caspase 3”. Besides, the cell cycle arrest entry in [12] was “significant G2M arrest”. Also, in [13], the “level of NFκB” value is reported as “significantly decreased the level of NFκB”. Moreover, the IL-6 gene transcription entry in data set [14] is reported as “did not affect IL-6 gene transcription”. The “IL-6 receptor α gene transcription” value in data set [15] is on record as “no effect on the transcription of both genes”. In addition, in data set [2] (increasing concentrations, 24, 48 or 72 hours), the “inhibition of growth of MH7A cells” value was “dose and time dependent inhibition of growth”. Also, the IC50 in data set [2] (read-out: 50% inhibitory concentration, growth of MH7A cells, MTT assay, 24, 48 or 72 hours) was around 5 µM. Further, the JNK phosphorylation result in [4] (5 μM As2O3, 0-24 hours) is listed as “significant increases in JNK phosphorylation”. Further, in data set [16], the “annexin-V positive, propidium iodide negative (apoptotic) cells” value turned out to be 38.2% and the “annexin-V positive, propidium iodide positive (dead) cells” value turned out to be 5.76%.
